Legend:
peritoneal macrophages [1] = assay: TNF-á production by peritoneal macrophages stimulated with lipopeptide; type: cell-based, mouse; conditions: 24 hours, various concentrations, FIG. 4
Method: (§1) Each of wild-type (wild-type), TLR6 knockout (TLR6−/−) and TLR2 knockout (TLR2−/−) mice were intraperitoneally injected with 2 ml of 4% thioglycollate medium (DIFCO). Three days later, peritoneal exudate cells were isolated from the peritoneal cavity of each mouse. These cells were cultured in RPMI1640 medium (GIBCO) supplemented with 10% fetal bovine serum (GIBCO) for 2 hours at 37° C. and washed with ice-cold Hank's buffered salt solution (HBSS; GIBCO) to remove nonadherent cells. Adherent cells were used as peritoneal macrophages for the following experiments.
(§2) Responsiveness of peritoneal macrophages derived from a wild-type mouse or a TLR6 knockout mouse to lipopeptide was examined with synthetic Gram negative bacteria-derived lipopeptide JBT3002 and synthetic mycoplasma-derived lipopeptide MALP-2. Peritoneal macrophages (5×10^4 cells) of wild-type and TLR6 knockout mice prepared in Example 2 were cultured for 24 hours together with various concentrations of JBT3002 (provided by Dr. Z. Dong) or MALP-2 (provided by Dr. P. F. Muhlradt) shown in FIG. 4, and stimulated. When culture was completed, the production amounts of TNF-á (TNFá) and NO2^− (NO) in culture supernatants were measured (FIG. 4). NO2^− was measured by the Greiss method using NO2/NO3 Assay Kit (Dojindo Laboratories).

peritoneal macrophages [2] = assay: NO2^− production by peritoneal macrophages stimulated with lipopeptide (Greiss method); type: cell-based, mouse; conditions: 24 hours, various concentrations, FIG. 4
Method: as §1, §2

NF-êB = NF-êB activation in peritoneal macrophages (nucleoprotein binding to NF-êB DNA probe, electrophoresis, autoradiography); type: cell-based, mouse; conditions: 0.1 ng/ml JBT3002 or 0.3 ng/ml MALP-2 for 20 or 40 minutes, FIG. 5
Method: as §1
It is known that TLR signals activate IRAK, which is serine/threonine kinase, via an adapter molecule MyD88 and then activate MAP kinase and NF-êB (Immunity 11, 115-122, 1999). In addition, it is also known that a mycoplasma-derived lipoprotein/lipopeptide causes vital reaction via TLR2 and MyD88 signaling pathways (J. Immunol. 164, 554-557, 2000). Consequently, with wild-type, TLR6 knockout and TLR2 knockout mice, whether a bacteria-derived lipoprotein/lipopeptide activates intracellular signaling molecules was examined. Peritoneal macrophages (1×10^6 cells) of wild-type (wild-type) and TLR6 knockout (TLR6−/−) and TLR2 knockout (TLR2−/−) mice prepared in Example 2 were stimulated with 0.1 ng/ml JBT3002 or 0.3 ng/ml MALP-2 for 20 or 40 minutes, and nucleoproteins were extracted from macrophages of each mouse and incubated with a specific probe containing DNA binding site of NF-êB, then subjected to electrophoresis and visualized by autoradiography (FIG. 5).

peritoneal macrophages [3] = assay: TNFá production by peritoneal macrophages in response to lipoprotein, LPS or PGN (ELISA); type: cell-based; conditions: macrophages from TLR6 knockout mouse (TLR6−/−) compared with wild-type; 24 hours; 10 μM lipoprotein, 100 ng/ml LPS, various concentrations of PGN; FIG. 3
Method: as §1
Therefore, responsiveness of TLR6 knockout mouse to these LPS, lipoprotein derived from Spirochaeta, and peptidoglycan derived from Staphylococcus aureus was examined. Peritoneal macrophages (5×10^4 cells) of wild-type and TLR6 knockout mice prepared in Example 2 were cultured for 24 hours together with 10 μM B. burgdorferi-derived lipoprotein OspA or OspC, 10 μM T. pallidum-derived lipoprotein 17-kDa (17) or 47-kDa (47), 100 ng/ml LPS, or various concentrations of peptidoglycan (PGN) shown in FIG. 3. When culture was completed, concentrations of TNFá in culture supernatants were measured by ELISA respectively.

[4] = macrophages from TLR6 knockout mouse (TLR6−/−)
[5] = macrophages from wild-type mouse

## MALP-2
Peritoneal macrophages [1]; [4]
  production amount of TNF-á: produced no TNF-á and NO2^−
Peritoneal macrophages [1]; [5]
  production amount of TNF-á: increased the production amounts of TNF-á (TNFá) and NO2^− (NO) in a manner dependent on doses
Peritoneal macrophages [2]; [4]
  production amount of NO2^−: produced no TNF-á and NO2^−
Peritoneal macrophages [2]; [5]
  production amount of NO2^−: increased the production amounts of TNF-á (TNFá) and NO2^− (NO) in a manner dependent on doses
NF-êB; macrophages from TLR2 knockout mouse (TLR2−/−)
  activation of NF-êB: no activation was observed
NF-êB; [4]
  activation of NF-êB: no activation in response to MALP-2 was observed
NF-êB; [5]
  activation of NF-êB: activation of NF-êB in response to the stimulation with MALP-2 or JBT3002 was observed

## OspA: B. burgdorferi-derived lipoprotein
Peritoneal macrophages [3]
  TNFá in culture supernatant: approximately the same amount of TNFá as macrophages derived from a wild-type mouse

## lipopolysaccharide [LPS]
Peritoneal macrophages [3]
  TNFá in culture supernatant: approximately the same amount of TNFá as macrophages derived from a wild-type mouse

## peptidoglycan [PGN]
Peritoneal macrophages [3]
  TNFá in culture supernatant: approximately the same amount of TNFá as macrophages derived from a wild-type mouse

B1: OspC: B. burgdorferi-derived lipoprotein (protein, UniProt Q07337 19-210, looked up)
Outer surface protein C: CNNSGKDGNTSANSADESVKGPNLTEISKKITDSNAVLLAVKEVEALLSSIDEIAAKAIGKKIHQNNGLDTENNHNGSLLAGAYAISTLIKQKLDGLKNEGLKEKIDAAKKCSETFTNKLKEKHTDLGKEGVTDADAKEAILKTNGTKTKGAEELGKLFESVEVLSKAAKEMLANSVKELTSPVVAESPKKP
Peritoneal macrophages [3]
  TNFá in culture supernatant: approximately the same amount of TNFá as macrophages derived from a wild-type mouse

From US7371921B2, “Nonhuman animal model non-responsive to mycoplasma-origin lipoprotein/lipopeptide” (Japan Science and Technology Agency, priority 2000, dated 2008)
